Columns and labels:
Conditions in all cases: 72 h
HepG2 [1] = assay: relative viability EC50 (midpoint between 100% and the lowest measured viability); higher = less toxic
Caco-2 [2] = assay: as above
Calu-3 [3] = assay: as above
Vero E6 [4] = assay: as above
U2OS [5] = assay: as above
HepG2 [6] = assay: cell viability relative to DMSO; higher = less toxic
Caco-2 [7] = assay: as above
Calu-3 [8] = assay: as above
Vero E6 [9] = assay: as above
U2OS [10] = assay: as above
HepG2 [11] = assay: drug sensitivity score (DSS) for viability; higher = more toxic; extreme values may be limits of the assay
Caco-2 [12] = assay: as above
Calu-3 [13] = assay: as above
Vero E6 [14] = assay: as above
U2OS [15] = assay: as above

Structure (SMILES)	relative viability EC50 (HepG2 [1])	relative viability EC50 (Caco-2 [2])	relative viability EC50 (Calu-3 [3])	relative viability EC50 (Vero E6 [4])	relative viability EC50 (U2OS [5])	cell viability (HepG2 [6]; 1 nM)	cell viability (HepG2 [6]; 10 nM)	cell viability (HepG2 [6]; 100 nM)	cell viability (HepG2 [6]; 1000 nM)	cell viability (HepG2 [6]; 10000 nM)	cell viability (Caco-2 [7]; 1 nM)	cell viability (Caco-2 [7]; 10 nM)	cell viability (Caco-2 [7]; 100 nM)	cell viability (Caco-2 [7]; 1000 nM)	cell viability (Caco-2 [7]; 10000 nM)	cell viability (Calu-3 [8]; 1 nM)	cell viability (Calu-3 [8]; 10 nM)	cell viability (Calu-3 [8]; 100 nM)	cell viability (Calu-3 [8]; 1000 nM)	cell viability (Calu-3 [8]; 10000 nM)	cell viability (Vero E6 [9]; 1 nM)	cell viability (Vero E6 [9]; 10 nM)	cell viability (Vero E6 [9]; 100 nM)	cell viability (Vero E6 [9]; 1000 nM)	cell viability (Vero E6 [9]; 10000 nM)	cell viability (U2OS [10]; 1 nM)	cell viability (U2OS [10]; 10 nM)	cell viability (U2OS [10]; 100 nM)	cell viability (U2OS [10]; 1000 nM)	cell viability (U2OS [10]; 10000 nM)	drug sensitivity score (HepG2 [11])	drug sensitivity score (Caco-2 [12])	drug sensitivity score (Calu-3 [13])	drug sensitivity score (Vero E6 [14])	drug sensitivity score (U2OS [15])
C[C@@H]1CC[C@H]2[C@@H](C)C(=O)O[C@@H]3O[C@@]4(C)CC[C@@H]1[C@]32OO4 [artemisinin]	> 10 µM	> 10 µM	> 10 µM	> 10 µM	> 10 µM	97.3%	93.1%	88.7%	86.1%	77.1%	95.6%	104%	102%	91.4%	81.6%	101%	102%	99.5%	95.4%	97.5%	97.5%	95.4%	98%	96.9%	100%	96.9%	99.8%	94.6%	91.1%	78.6%	2.5	1.3	0	0	1.1
Cc1cnc(-c2cc(N3CCN(C(=O)CCS(C)(=O)=O)CC3)ncc2Cl)c(C)c1	> 10 µM	> 10 µM	> 10 µM	> 10 µM	> 10 µM	99.9%	93.2%	98.6%	101%	113%	103%	90.2%	102%	99.1%	106%	104%	105%	92.8%	110%	109%	94.5%	93.4%	95.4%	95.3%	102%	92.1%	101%	98.1%	105%	101%	0	0	0	0	0
Cc1ncc(-c2csc(N=C(N)N)n2)[nH]1 [zaltidine]	> 10 µM	> 10 µM	> 10 µM	> 10 µM	> 10 µM	105%	105%	101%	94.5%	107%	101%	99%	92.3%	92.5%	109%	108%	96%	99.2%	103%	103%	99.6%	92.6%	87.3%	94.2%	107%	104%	97.9%	97.8%	104%	106%	0	0	0	0	0
CC(C)(F)C[C@H](N[C@@H](c1ccc(-c2ccc(S(C)(=O)=O)cc2)cc1)C(F)(F)F)C(=O)NC1(C#N)CC1 [odanacatib]	> 10 µM	> 10 µM	> 10 µM	> 10 µM	> 10 µM	110%	104%	99.4%	101%	94.1%	96.1%	99.9%	99.1%	94.1%	90.4%	98.3%	97.1%	100%	115%	98.7%	101%	98.8%	99.8%	99.4%	106%	103%	108%	93.3%	102%	94.8%	0	0	0	0	0
O=C(NCCO)c1cccc(-c2cc(Nc3ccc(OC(F)(F)F)cc3)ncn2)c1 [GNF-5]	> 10 µM	> 10 µM	> 10 µM	> 10 µM	> 10 µM	99.5%	95.2%	98.2%	98.1%	89.4%	94.1%	92.7%	95.3%	107%	78.5%	102%	99.4%	89.8%	107%	94%	91.5%	97.4%	94.6%	105%	102%	95.7%	101%	98.5%	106%	98.5%	0	0.4	0	0	0
C[C@@H]([C@@H](O)c1ccc(O)cc1)N1CCC(O)(c2ccccc2)CC1 [traxoprodil]	> 10 µM	> 10 µM	> 10 µM	> 10 µM	> 10 µM	98.1%	91.4%	104%	107%	101%	100%	100%	92.6%	99.8%	97%	98.9%	94.3%	93.3%	109%	108%	98.2%	95.3%	95.7%	100%	98.7%	100%	100%	96.1%	110%	101%	0	0	0	0	0
C[C@H](Cc1ccc(OCC(=O)O)cc1)NC[C@H](O)c1cccc(Cl)c1	> 10 µM	> 10 µM	> 10 µM	> 10 µM	> 10 µM	104%	111%	98.4%	99.8%	97.7%	98.6%	89.6%	105%	94.8%	103%	97.9%	101%	103%	100%	90.7%	97.6%	95.9%	91.7%	92.3%	105%	98%	93.3%	96%	102%	99.8%	0	0	0	0	0
O=C(O)CC1CC(c2ccccc2)=NO1 (stereo not given) [VGX-1027]	> 10 µM	> 10 µM	> 10 µM	> 10 µM	> 10 µM	98.1%	93.8%	101%	104%	115%	98.2%	106%	99.6%	96.1%	104%	91.7%	101%	91.8%	93.7%	103%	94.1%	94.7%	97.6%	95%	102%	101%	94.8%	97.1%	103%	103%	0	0	0	0	0
CN(C)CCCCSC(=N)N	> 10 µM	> 10 µM	> 10 µM	> 10 µM	> 10 µM	104%	103%	90.7%	93%	95.1%	104%	111%	99.6%	105%	97.9%	90.6%	89.5%	89%	91.8%	90.1%	104%	108%	101%	105%	99.3%	94%	92.8%	100%	94.7%	97.8%	0	0	0.8	0	0
C=C[C@@H]1C[C@]1(NC(=O)[C@@H]1C[C@@H](Oc2ncc(OC)c3ccc(Cl)cc23)CN1C(=O)[C@@H](NC(=O)OC(C)(C)C)C(C)(C)C)C(=O)NS(=O)(=O)C1CC1 [asunaprevir]	> 10 µM	> 10 µM	> 10 µM	> 10 µM	> 10 µM	104%	97.8%	98.8%	89.8%	86.1%	98.7%	96.5%	90%	104%	85.8%	104%	101%	104%	101%	95.9%	102%	98.4%	93.5%	101%	91%	98.4%	101%	96.7%	96.8%	97.8%	0.6	0.1	0	0	0
O=C(O)CNC(=O)c1nc(Cl)c2ccccc2c1O [FG-2216]	> 10 µM	> 10 µM	> 10 µM	> 10 µM	> 10 µM	101%	98%	96.4%	99.1%	95.3%	98.2%	102%	99.3%	94.1%	93.5%	106%	98.5%	96.6%	103%	103%	100%	99.4%	104%	102%	99.5%	107%	98%	101%	91.5%	93.2%	0	0	0	0	0
CCCc1c(OCCCOc2ccc(OCC(=O)O)cc2)ccc(C(C)=O)c1O	> 10 µM	> 10 µM	> 10 µM	> 10 µM	> 10 µM	102%	106%	107%	104%	92.8%	97.2%	90.6%	88.8%	95.7%	103%	101%	94.8%	93.6%	101%	107%	107%	99.5%	106%	102%	94.2%	94.3%	98.6%	93.4%	96.5%	102%	0	0	0	0	0
CN1C[C@@H](NS(=O)(=O)N(C)C)C[C@@H]2c3cccc4c3c(cn4C)C[C@H]21 [mesulergine]	> 10 µM	> 10 µM	> 10 µM	> 10 µM	> 10 µM	101%	99.3%	106%	108%	100%	108%	102%	105%	98.9%	108%	111%	106%	107%	96.1%	102%	97.5%	104%	94.1%	97.9%	94.9%	103%	100%	101%	101%	99.9%	0	0	0	0	0
CN(C)CCCOc1nn(Cc2ccccc2)c2ccccc12 [benzydamine]	> 10 µM	> 10 µM	> 10 µM	> 10 µM	> 10 µM	97.7%	102%	95.1%	91.4%	89.8%	86.2%	94.3%	73.1%	80.3%	87.1%	98.8%	91.7%	95.6%	101%	90.5%	98.7%	105%	98.3%	96.9%	85.5%	101%	96.5%	100%	95.6%	91.2%	0	0	0	0.5	0
